For assay [1], the system named is TNBS-induced, post-inflammatory colonic hypersensitivity. Nature of the assay: TNBS-induced post-inflammatory colonic hypersensitivity model, VMR to CRD. Particulars: 0.25 mg/kg cetirizine, 0.6 mg/kg famotidine, each alone, oral twice daily 3.5 days; FIG. 8.
Assay [2] concerns rat colonic mucosa. Nature of the assay: PGE2-induced short-circuit current across rat colonic mucosa. The class given is cell-based. Particulars: 6 μM famotidine, 3 μM cetirizine, each alone; FIG. 3. The source says: (§1) Data are presented as mean±standard error of mean (SEM). […] 2014 December; 63(12):1873-82).
(§2) These secretogogues were selected because PGE2 mediates the occurrence of watery diarrhea in response to a low-grade inflammatory insult and forakolin because it selectively activates all forms of cAMP-mediated intestinal secretion.

Assay [3] concerns rat colonic mucosa. Nature of the assay: Forskolin-induced short-circuit current across rat colonic mucosa. It counts as cell-based. The settings on record: 6 μM famotidine, 3 μM cetirizine, each alone; FIG. 4.
Description: as §1, §2

Assay [4] deals with rat colonic mucosa. The assay can be described thus: Electrical field stimulation-induced short-circuit current across rat colonic mucosa in Ussing chambers. The settings on record: individually or combined; for effect on EFS-induced ΔISC: famotidine 10 μM, cetirizine 5 μM, EFS 16 Hz, FIG. 1; for inhibition of EFS-induced ΔISC: famotidine 200 μM, cetirizine 100 μM, FIG. 2. The class given is cell-based.
Description: as §1

Assay [5] has as its system colonic hypersensitivity. The assay can be described thus: Three rat models of colonic hypersensitivity, overall statement and conversion to human equivalent doses. Particulars: 0.25 mg/kg cetirizine, 0.6 mg/kg famotidine, two times per day p.o.
Assay [6] concerns stress-induced visceral hypersensitivity. Nature of the assay: Chronic water avoidance stress (WAS) model, visceromotor response to colorectal distension. Particulars: oral twice daily 3.5 days.
The test system of assay [7] is acetic acid-induced colonic hypersensitivity. Particulars: famotidine 0.6 mg/kg, cetirizine 0.25 mg/kg, each alone, oral twice daily 3.5 days; FIG. 7.
The mark [8] stands for this setting: famotidine 0.6 mg/kg, cetirizine 0.25 mg/kg, each alone, FIG. 6.
[9] abbreviates: lowest doses: famotidine 0.3 mg/kg, cetirizine 0.15 mg/kg, alone or in combination, FIG. 5.

Consider `O=C(O)COCCN1CCN(C(c2ccccc2)c2ccc(Cl)cc2)CC1` (centres unmarked) [cetirizine], for which, in assay [1], the “effect on TNBS-induced colonic hypersensitivity” value is reported as “Neither cetirizine alone nor famotidine alone exhibited any effect”. Moreover, in assay [2], the “effect on PGE2-induced changes in ISC” value was “neither drug alone was effective”. Further, the “effect on forskolin-induced changes in ISC” value in assay [3] is “only minimally effective”. In addition, in assay [4], the “effect on EFS-induced ΔISC” value is “had no effect” and the “inhibition of EFS-induced ΔISC” value is recorded as “modest changes in ISC”. Further, the “inhibitory effect on colonic hypersensitivity in all three rat models” value in assay [5] is “did not result in sufficient inhibition”. For the same compound, the “effect on colonic hypersensitivity” value in assay [6] (setting [8]) is given as “neither drug alone had an effect”. Further, the “effect on colonic hypersensitivity” value in assay [6] (setting [9]) is given as “had no effect on colonic hypersensitivity”.

For the compound `NC(N)=Nc1nc(CSCCC(N)=NS(N)(=O)=O)cs1` [famotidine], the “inhibition of acetic acid-induced colonic hypersensitivity” value in assay [7] was “not either drug alone, induced a significant inhibition”. Also, the “effect on TNBS-induced colonic hypersensitivity” value in assay [1] is “Neither cetirizine alone nor famotidine alone exhibited any effect”. Moreover, the “effect on PGE2-induced changes in ISC” value in assay [2] is listed as “neither drug alone was effective”. Further, in assay [3], the “effect on forskolin-induced changes in ISC” value is “only minimally effective”. Moreover, in assay [4], the “effect on EFS-induced ΔISC” value is “had no effect” and the “inhibition of EFS-induced ΔISC” value was “modest changes in ISC”. The “inhibitory effect on colonic hypersensitivity in all three rat models” value in assay [5] is reported as “did not result in sufficient inhibition”. Besides, the “effect on colonic hypersensitivity” value in assay [6] (setting [8]) is given as “neither drug alone had an effect”. The “effect on colonic hypersensitivity” value in assay [6] (setting [9]) was “had no effect on colonic hypersensitivity”.

These data come from patent US11419868B2, “Low dose product and method for treating diarrhea” (MAREGADE RX, LLC, priority 2016, dated 2022).
